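Following 48 hours of exposure in 96-well plates, responses at five concentrations were used to interpolate endpoints linearly. GI50 marks 50% less growth.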 Active and inactive are the calls of the source. Rule as the data show it: active = GI50 up to about 1.1 µM and inactive = higher. Bounds are passed on as bounds.

One may read the GI50 as the concentration giving 50% growth inhibition.

Holding throughout (experiment): DTP human tumour cell line panel, 48 h
Experiment [1] deals with 786-0.
Experiment [2] deals with A549.
The test system of experiment [3] is HCC 2998.
The test system of experiment [4] is K562.
Experiment [5] deals with MCF7.
Experiment [6] relates to MDA-MB-231.
Experiment [7] relates to MDA-N.
Experiment [8] concerns Malme-3M.
For experiment [9], the system named is NCI-H522.
Experiment [10] relates to OVCAR-4.
Experiment [11] relates to RPMI-8226.
In experiment [12] the test system is RXF 393.
Experiment [13] deals with SF-539.
Experiment [14] has as its system SK-MEL-2.
In experiment [15] the test system is SK-OV-3.
Experiment [16] has as its system SNB-19.
Experiment [17] has as its system SNB-75.
Experiment [18] has as its system T47D.
For experiment [19], the system named is TK-10.
Experiment [20] relates to OVCAR-3.

On to `CC[C@H](C)[C@H](NC(=O)[C@H](Cc1ccc(O)cc1)NCC(F)(F)F)C(=O)OC(C)(C)C`, for which the GI50 in experiment [1] is 8.15 µM (inactive); in experiment [2], 5.41 µM (inactive); in [3], 7.29 µM (inactive); in experiment [4] it was 8.61 µM (inactive); in experiment [5], 7.74 µM (inactive); in [6] it was 7.28 µM (inactive). In addition, the GI50 is 8.32 µM (inactive) in experiment [7]; 10.2 µM (inactive) in [8]; 7.31 µM (inactive) in [9]; 5.64 µM (inactive) in [10]; 6.64 µM (inactive) in [11]; 7.16 µM (inactive) in experiment [12]. The GI50 in [13] was 9.71 µM (inactive); in experiment [14], 6.53 µM (inactive); in experiment [15] it was 8.11 µM (inactive); in experiment [16] it was 7.96 µM (inactive); in experiment [17], 7.89 µM (inactive); in experiment [18], 4.51 µM (inactive). For the same molecule, the GI50 in [19] is 8.09 µM (inactive).
In the case of `CNC(=O)c1nnn(C2CCCCC2)c1S`, the GI50 in experiment [1], in experiment [2], in experiment [3], in [4], in experiment [5] and in [6] was > 100 µM (inactive) each time. Also, the GI50 in [7] was > 100 µM (inactive); in [8] it was > 100 µM (inactive); in experiment [9], > 100 µM (inactive); in [20], 0.0885 µM (active); in [10], > 100 µM (inactive); in experiment [11], > 100 µM (inactive). Also, the GI50 was > 100 µM (inactive) in [12]; 6.11 µM (inactive) in [13]; > 100 µM (inactive) in [14]; > 100 µM (inactive) in experiment [15]; > 100 µM (inactive) in experiment [16]; > 100 µM (inactive) in experiment [17]. For the same molecule, the GI50 in experiment [18] was > 100 µM (inactive).
As for `CC1=NN(C(=O)c2ccccc2O)C(=O)/C1=C/c1cccc([N+](=O)[O-])c1`, the GI50 in experiment [1] is 2.47 µM (inactive); in experiment [2], 0.448 µM (active); in experiment [3], 36.1 µM (inactive); in experiment [4], 0.364 µM (active); in experiment [5] it was 2.52 µM (inactive); in experiment [6], 41.8 µM (inactive). In addition, the concentration for 50% growth inhibition (GI50) in experiment [7] is 0.608 µM (active); in experiment [8], 21.1 µM (inactive); in [9], 3.99 µM (inactive); in experiment [20], 1.87 µM (inactive); in [10] it was 3.55 µM (inactive); in experiment [11] it was 13.3 µM (inactive). Further, the GI50 is 0.189 µM (active) in [12]; 0.377 µM (active) in experiment [13]; 3.1 µM (inactive) in experiment [14]; 15.3 µM (inactive) in experiment [15]; 0.385 µM (active) in experiment [16]; 0.449 µM (active) in [17]. For the same molecule, the GI50 in experiment [18] was 17.3 µM (inactive); in [19] it was 15.6 µM (inactive).
As for `CCOC(=O)/C(C(=O)Nc1cccc(C(F)(F)F)c1)=C(/N)N1CCCC1`, the GI50 was 52.6 µM (inactive) in [1]; > 100 µM (inactive) in experiment [2]; > 100 µM (inactive) in experiment [3]; > 100 µM (inactive) in [4]; 63 µM (inactive) in experiment [5]; 42.4 µM (inactive) in experiment [6]. Also, the GI50 in experiment [7], in experiment [8], in [9], in [20], in experiment [10] and in [11] was > 100 µM (inactive) throughout. For the same molecule, the GI50 in [12] is 20.9 µM (inactive); in [13], 20.1 µM (inactive); in experiment [14], > 100 µM (inactive); in experiment [15], 52.4 µM (inactive); in experiment [16], > 100 µM (inactive); in experiment [17] it was 23.4 µM (inactive). Besides, the GI50 in [18] is 47.8 µM (inactive); in [19], > 100 µM (inactive).
Take `O=c1oc2ccc3ccccc3c2cc1-c1nc2ccccc2o1`: the GI50 in [1] is 18.6 µM (inactive); in [2], 28.2 µM (inactive); in [3] it was 61.1 µM (inactive); in experiment [4] it was 58.3 µM (inactive); in [5], 1.26 µM (inactive); in experiment [6] it was 16.8 µM (inactive). For the same molecule, the GI50 is 23.3 µM (inactive) in experiment [7]; 13.7 µM (inactive) in experiment [8]; 21.3 µM (inactive) in [9]; 15.3 µM (inactive) in experiment [20]; 21 µM (inactive) in experiment [10]; > 38.8 µM (inactive) in experiment [11]. For the same molecule, the GI50 in experiment [12] was 16.1 µM (inactive); in [13], 15.8 µM (inactive); in experiment [14], 20.6 µM (inactive); in experiment [15], 25.6 µM (inactive); in experiment [16], 19.7 µM (inactive); in [17] it was 17.5 µM (inactive). For the same molecule, the GI50 in experiment [18] was 3.17 µM (inactive); in [19] it was > 52.1 µM (inactive).
Take `CN(C)CC1CCC(CN(C)C)C(=O)C1=O` (stereo unspecified): the GI50 in experiment [1] was 5.14 µM (inactive); in experiment [2] it was 10.9 µM (inactive); in experiment [3] it was 20.9 µM (inactive); in experiment [4] it was 2.27 µM (inactive); in experiment [5] it was 2.46 µM (inactive); in [6], 6.22 µM (inactive). The GI50 in [7] was > 10 µM (inactive); in experiment [8], 1.92 µM (inactive); in experiment [9] it was 0.946 µM (active); in experiment [20], 2.31 µM (inactive); in [10] it was 7.8 µM (inactive); in experiment [11] it was 2.52 µM (inactive). Besides, the GI50 was 1.82 µM (inactive) in [12]; 7.18 µM (inactive) in experiment [13]; 19.3 µM (inactive) in experiment [14]; 24 µM (inactive) in [15]; 17.7 µM (inactive) in experiment [16]; 14.7 µM (inactive) in [17]. Moreover, the GI50 in experiment [18] is 2.31 µM (inactive); in experiment [19] it was 3.6 µM (inactive).
As for `O=C(O)c1cc2c(cc1CC(Cc1ccccc1)C(=O)O)CCC2` (stereo unspecified), the GI50 in experiment [1], in experiment [2], in experiment [3], in [4], in experiment [5] and in [6] was > 100 µM (inactive) throughout. Further, the GI50 in experiment [7], in [8], in experiment [9], in [20], in experiment [10] and in experiment [11] was > 100 µM (inactive) in each case. Moreover, the GI50 in [12], in experiment [13], in experiment [14], in experiment [15], in experiment [16] and in experiment [17] was > 100 µM (inactive) in each case. For the same molecule, the GI50 in experiment [18] and in experiment [19] was > 100 µM (inactive) each time.
For `COc1cc2c(cc1O)NC(=S)[C@@H]1CCCN1C2=O`, the GI50 in experiment [1], in [2], in experiment [3], in experiment [4], in [5] and in [6] was > 100 µM (inactive) each time. Moreover, the GI50 in [7], in experiment [8], in [9], in [20], in [10] and in [11] was > 100 µM (inactive) in each case. Also, the GI50 in experiment [12], in [13], in [14], in experiment [15], in [16] and in [17] was > 100 µM (inactive) throughout. Besides, the GI50 in experiment [18] and in experiment [19] was > 100 µM (inactive) throughout.
Turning to `CN1CCN(c2n[nH]c(=O)c3c2nnn3C2CCCCC2)CC1`, the GI50 in experiment [1], in experiment [2], in experiment [3], in [4], in experiment [5] and in [6] was > 100 µM (inactive) each time. Also, the GI50 in [7], in experiment [8], in [9], in experiment [20], in experiment [10] and in experiment [11] was > 100 µM (inactive) each time. The GI50 in experiment [12], in [13], in experiment [14], in experiment [16], in [17] and in experiment [18] was > 100 µM (inactive) throughout. The GI50 in experiment [19] was > 100 µM (inactive).
Take `CN(CCNC(=O)c1cc(-c2ccccc2)nc2ccccc12)CCNC(=O)c1cc(-c2ccccc2)nc2ccccc12`: the GI50 in experiment [1] was 5.96 µM (inactive); in experiment [2] it was > 100 µM (inactive); in experiment [3], 2.43 µM (inactive); in [4], 3.55 µM (inactive); in [5], 3.87 µM (inactive); in experiment [6] it was > 50.4 µM (inactive). Besides, the GI50 in experiment [7] was 11.1 µM (inactive); in experiment [8], 2.12 µM (inactive); in experiment [9] it was 14.3 µM (inactive); in experiment [20] it was 23 µM (inactive); in experiment [11], 4.99 µM (inactive); in experiment [12], 8.67 µM (inactive). Besides, the GI50 in experiment [13] was 7.71 µM (inactive); in [14] it was 4.41 µM (inactive); in experiment [15], > 100 µM (inactive); in [16], > 60 µM (inactive); in experiment [17] it was 7.53 µM (inactive); in experiment [18] it was > 30.5 µM (inactive). Also, the GI50 in [19] is > 100 µM (inactive).

These data come from ChEMBL document CHEMBL1201862, “PubChem BioAssay data set” (2004).
